# Laboratory results: paper PMC11786100, “Chronic GIPR agonism results in pancreatic islet GIPR functional desensitisation” (Molecular Metabolism, 2025)
# Assays:
# [1] = biological target: T1, GIPR (Mus musculus, UniProt Q0P543); assay: Ex vivo islet GIPR desensitisation (pre-treat/washout/rechallenge cAMP); format: cell-based; conditions: for rechallenge cAMP response after 24-hour pre-treatment: cADDis
# T1 construct: from tissue; host or cells: dispersed pancreatic islets of C57BL/6J, CAMPER Pdx1-CreERT2 and CAMPER Som-Cre mice
# T1 sequence (Q0P543 19-460): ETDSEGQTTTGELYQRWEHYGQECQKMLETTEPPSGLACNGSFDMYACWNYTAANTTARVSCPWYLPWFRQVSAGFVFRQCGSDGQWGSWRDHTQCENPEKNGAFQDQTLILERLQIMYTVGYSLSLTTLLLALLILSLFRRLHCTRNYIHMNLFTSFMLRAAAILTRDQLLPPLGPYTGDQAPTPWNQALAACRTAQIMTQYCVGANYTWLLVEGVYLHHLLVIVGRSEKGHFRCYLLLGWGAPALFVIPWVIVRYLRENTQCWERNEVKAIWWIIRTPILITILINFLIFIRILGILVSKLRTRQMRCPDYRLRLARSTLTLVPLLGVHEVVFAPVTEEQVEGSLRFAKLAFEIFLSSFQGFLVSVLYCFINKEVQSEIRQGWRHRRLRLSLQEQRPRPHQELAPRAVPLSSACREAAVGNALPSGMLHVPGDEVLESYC
# Procedure: Primary cultures of mouse hypothalamic neurons and dispersed pancreatic islets were transduced with the Green Up cADDis biosensor (Montana Molecular, US). Pancreatic islets from CAMPER^Pdx−1-CreERT2 and CAMPER^Som-Cre mice were not transduced. Cells were pre-treated with peptides as specified, dissolved in culture media. Following 4 h or overnight incubation and a 1-hour washout period, cells were imaged using an epifluorescence microscope at baseline (t = 3 min), following peptide addition (t = 10 min, unless specified otherwise), and following 3-isobutyl-1-methylxanthine (IBMX) (500 μM) and forskolin (FSK) (50 μM) addition (t = 3 min) to maximally stimulate the sensor. In pre-treatment experiments, islet cell fluorescence was normalised to the IBMX/FSK response which was set as 100%. In non-pre-treatment experiments, islet and neuronal cell fluorescence was normalised to both the baseline and IBMX/FSK response. The area-under-the-curve (AUC) for each cell was quantified. Full details of isolation, transduction, plating, imaging and image analysis is provided in the supplementary methods.
# During this treatment, peptides were dissolved in islet culture media. Prior to imaging, the peptide washout period was 1 hour in Krebs buffer with 6 mM glucose and 0.1% BSA.
# Cells were imaged in Krebs buffer with 6 mM glucose and 0.1% BSA (unless 10% FBS was specified) at 37°C using an automated epifluorescence microscope (modified Nikon Ti-2E with LED illumination). Multiple fields of view (FOV) were imaged in parallel (for islets, multiple wells of a 96 well plate were imaged in parallel), allowing hundreds to thousands of cells to be imaged every minute throughout the time course. For all acquisitions, the first three minutes were baseline recording pre-peptide addition and the last three minutes were a positive control following IBMX (500 μM) and forskolin (50 μM) addition to maximally stimulate the sensor.
# Cells were imaged in a similar setup described in the previous paragraph. However, an image spitter (OptoSplit III, Cairn Research Ltd, UK) was used to enable simultaneous acquisition of cyan fluorescent protein (CFP) and yellow fluorescent protein (YFP) emission. cAMP was quantified based on the YFP/CFP FRET ratio from each cell.
# cAMP quantification from the raw islet/neuronal images was performed using Fiji v1.54f (NIH). […] The fluorescence intensity of each ROI was measured at each time point. In pre-treatment experiments, islet cell fluorescence was normalised to the maximal IBMX/FSK response which was set as 100%. For non-pre-treatment experiments, neuronal and islet cell fluorescence were normalised to both the baseline and maximal IBMX/FSK response. The AUC during peptide stimulation for each cell was quantified. […]
# [2] = biological target: T2, mouse SNAP-tagged GIPR (Mus musculus, UniProt Q0P543); assay: β-arrestin-2 activation assay (Borealis sensor) in AD-293 cells; format: cell-based; conditions: 1 μM, 30-minute stimulation, n = 5–6
# T2 construct: host or cells: AD-293
# T2 sequence (Q0P543 19-460): T1 sequence (Q0P543 19-460)
# Procedure: AD-293 cells were transfected with desired plasmid DNA encoding a SNAP-tagged GPCR alongside transduction of Bacmam viral particles encoding the Borealis β-arrestin-2 sensor (Montana Molecular, US) and GRK5 (Montana Molecular, US) 24 h prior to assay. Cells were labelled for 10 min with BG-S-S-649 and imaged at baseline and for 30 min following peptide stimulation. Borealis arrestin sensor fluorescence in BG-S-S-649 labelled cells (representing GPCR expressing cells) was quantified and expressed as a % change from baseline.
# AD-293 cells were added to a 96-well plate and maintained in 200 μL complete DMEM. 150 ng of mouse or human SNAP-tagged plasmid GIPR or GLP-1R DNA, 2 μL of Borealis β-arrestin-2 sensor (Montana Molecular, US) and 2 μL of GRK5 (Montana Molecular, US) was added to each well alongside Lipofectamine 2000 and left for 24 hours.
# Cells were labelled with cleavable SNAP-tag probe BG-S-S-649 in complete DMEM for 10 minutes prior to washing and imaging. […] Cells were imaged at baseline, registering both BG-S-S-649 fluorescence and borealis arrestin sensor fluorescence. Borealis arrestin sensor fluorescence was then imaged for 30 minutes after peptide addition in intervals of 5 minutes. Borealis arrestin sensor fluorescence in BG-S-S-649 labelled cells was quantified using Fiji v1.54f (NIH) and expressed as a % change from baseline.
# [3] = biological target: T3, SNAP-tagged human GIPR (Homo sapiens, UniProt P48546); assay: Internalisation and receptor surface expression assays in AD-293 cells; format: cell-based; conditions: 1 μM
# T3 construct: host or cells: AD-293
# T3 sequence (P48546 22-466): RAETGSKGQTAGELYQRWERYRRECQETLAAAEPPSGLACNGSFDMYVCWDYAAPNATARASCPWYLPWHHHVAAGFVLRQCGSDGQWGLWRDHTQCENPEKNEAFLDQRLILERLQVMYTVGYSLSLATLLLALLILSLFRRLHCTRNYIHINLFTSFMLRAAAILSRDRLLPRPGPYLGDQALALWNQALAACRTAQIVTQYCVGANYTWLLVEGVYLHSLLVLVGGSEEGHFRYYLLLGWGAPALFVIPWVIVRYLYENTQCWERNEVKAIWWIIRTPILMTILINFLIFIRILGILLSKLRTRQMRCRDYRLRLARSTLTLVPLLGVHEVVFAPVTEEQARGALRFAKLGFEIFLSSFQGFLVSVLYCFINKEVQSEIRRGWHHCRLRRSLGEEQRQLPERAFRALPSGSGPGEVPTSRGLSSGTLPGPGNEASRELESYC
# Procedure: AD-293 cells were transfected with desired plasmid DNA encoding a SNAP-tagged G-protein coupled receptor (GPCR) 24 h prior to assay. For 1 h internalisation assays, cells were labelled for 10 min with cleavable SNAP-tag probe BG-S-S-649 (New England BioLabs, US). Following 1 h treatment with specified peptide, cells were imaged at baseline and after addition of 2-mercaptoethane sulfonate (Mesna). For 4-hour GPCR surface expression assays, cells were treated with the specified peptide for 4 h, prior to 10-minute labelling with BG-S-S-649 and imaging.
# AD-293 cells were added to a 96-well plate and maintained in 200 μl complete DMEM. […]
# For 1 hour internalisation assays, cells were labelled with cleavable SNAP-tag probe BG-S-S-649 (New England BioLabs, US) in complete DMEM for 10 minutes prior to washing and 1 hour treatment with specified peptide, reconstituted in DMEM + 0.1% BSA. […] GPCR internalisation was quantified as the cell fluorescence following Mesna addition (representing internalised GPCR), corrected for the baseline cell fluorescence (representing total cellular GPCR).
# For 4-hour GPCR surface expression assays, cells were treated with specified peptide for 4 hours in complete DMEM prior to labelling with BG-S-S-649. […] GPCR surface expression following peptide treatment was quantified as cell fluorescence as a percentage of cell fluorescence following vehicle treatment.
# [4] = Pharmacokinetic study in pigs; format: in vivo; conditions: 0.5 mg/pig subcutaneously, male large white pigs, n = 3
# Procedure: Pharmacokinetic testing of GIP108, administered subcutaneously at 0.5 mg/pig in male large white pigs, was outsourced to Pharmaron Ltd., UK. Full details are stated elsewhere.
smiles,measurement,setting,value
CC[C@H](C)[C@H](NC(=O)[C@H](CO)NC(=O)[C@H](Cc1ccc(O)cc1)NC(=O)[C@H](CC(=O)O)NC(=O)[C@H](CO)NC(=O)[C@@H](NC(=O)[C@H](Cc1ccccc1)NC(=O)[C@@H](NC(=O)CNC(=O)[C@H](CCC(=O)O)NC(=O)C(C)(C)NC(=O)[C@@H](N)Cc1ccc(O)cc1)[C@@H](C)O)[C@@H](C)CC)C(=O)N[C@@H](C)C(=O)N[C@@H](CC(C)C)C(=O)N[C@@H](CC(=O)O)C(=O)N[C@@H](CCCCN)C(=O)N[C@H](C(=O)N[C@@H](Cc1c[nH]cn1)C(=O)N[C@@H](CCC(N)=O)C(=O)N[C@@H](CCC(N)=O)C(=O)N[C@@H](CC(=O)O)C(=O)N[C@@H](Cc1ccccc1)C(=O)N[C@H](C(=O)N[C@@H](CC(N)=O)C(=O)N[C@@H](Cc1c[nH]c2ccccc12)C(=O)N[C@@H](CC(C)C)C(=O)N[C@@H](CC(C)C)C(=O)N[C@@H](C)C(=O)N[C@@H](CCC(N)=O)C(=O)N[C@@H](CCCCN)C(=O)NCC(=O)N[C@@H](CCCCNC(=O)CC[C@H](NC(=O)CCCCCCCCCCCCCCCCCCC(=O)O)C(=O)O)C(=O)N[C@@H](CCCCN)C(=O)N[C@@H](CC(N)=O)C(=O)N[C@@H](CC(=O)O)C(=O)N[C@@H](Cc1c[nH]c2ccccc12)C(=O)N[C@@H](CCCCN)C(=O)N[C@@H](Cc1c[nH]cn1)C(=O)N[C@@H](CC(N)=O)C(=O)N[C@H](C(=O)N[C@H](C(=O)N[C@@H](CCC(N)=O)C(=O)O)[C@@H](C)O)[C@@H](C)CC)C(C)C)[C@@H](C)CC [GIP108],GIPR desensitisation in pancreatic beta cells,"[1]; 24 h GIP108 pre-treatment, TEpacVV FRET sensor, CAMPER Pdx-1-CreERT2 mice, n = 4",GIPR desensitisation was observed in both cell types
same,GIPR desensitisation in pancreatic delta cells,"[1]; 24 h GIP108 pre-treatment, TEpacVV FRET sensor, CAMPER Som-Cre mice, n = 5",GIPR desensitisation was observed in both cell types
same,rechallenge cAMP response after 24-hour pre-treatment,"[1]; islets from HFD-induced obese mice, pre-treatment and rechallenge GIP108 (1 µM), n=3",The same effects were observed
same,rechallenge cAMP response after 24-hour pre-treatment,"[1]; pre-treatment 100 nM or 1 μM GIP108, rechallenge GIP108 (1 μM), dispersed islets from lean mice, n = 11–12",significantly reduced
same,β-arrestin-2 activation compared to vehicle control,[2],neither hGIP (1 μM) nor GIP108 (1 μM) resulted in significant increases
same,receptor internalisation compared to vehicle,"[3]; 1-hour treatment, BG-S-S-649/Mesna, n = 3–4",increased human GIPR internalisation
same,residual receptor detectable at the cell surface,"[3]; 4 h treatment, post-stimulation labelling, n = 7–8",reduction in residual human GIPR
same,half-life,[4],extended half-life
